This passage reports ΔTm results from ChEMBL document CHEMBL5058541, “EUbOPEN Chemogenomics Library 2 (NanoBRET)” (2022).

The structures appear in SMILES notation.

For this assay, the target named is T1, YEATS domain-containing protein 2 (Homo sapiens) (UniProt Q9ULM3).
T1 sequence (whole entry): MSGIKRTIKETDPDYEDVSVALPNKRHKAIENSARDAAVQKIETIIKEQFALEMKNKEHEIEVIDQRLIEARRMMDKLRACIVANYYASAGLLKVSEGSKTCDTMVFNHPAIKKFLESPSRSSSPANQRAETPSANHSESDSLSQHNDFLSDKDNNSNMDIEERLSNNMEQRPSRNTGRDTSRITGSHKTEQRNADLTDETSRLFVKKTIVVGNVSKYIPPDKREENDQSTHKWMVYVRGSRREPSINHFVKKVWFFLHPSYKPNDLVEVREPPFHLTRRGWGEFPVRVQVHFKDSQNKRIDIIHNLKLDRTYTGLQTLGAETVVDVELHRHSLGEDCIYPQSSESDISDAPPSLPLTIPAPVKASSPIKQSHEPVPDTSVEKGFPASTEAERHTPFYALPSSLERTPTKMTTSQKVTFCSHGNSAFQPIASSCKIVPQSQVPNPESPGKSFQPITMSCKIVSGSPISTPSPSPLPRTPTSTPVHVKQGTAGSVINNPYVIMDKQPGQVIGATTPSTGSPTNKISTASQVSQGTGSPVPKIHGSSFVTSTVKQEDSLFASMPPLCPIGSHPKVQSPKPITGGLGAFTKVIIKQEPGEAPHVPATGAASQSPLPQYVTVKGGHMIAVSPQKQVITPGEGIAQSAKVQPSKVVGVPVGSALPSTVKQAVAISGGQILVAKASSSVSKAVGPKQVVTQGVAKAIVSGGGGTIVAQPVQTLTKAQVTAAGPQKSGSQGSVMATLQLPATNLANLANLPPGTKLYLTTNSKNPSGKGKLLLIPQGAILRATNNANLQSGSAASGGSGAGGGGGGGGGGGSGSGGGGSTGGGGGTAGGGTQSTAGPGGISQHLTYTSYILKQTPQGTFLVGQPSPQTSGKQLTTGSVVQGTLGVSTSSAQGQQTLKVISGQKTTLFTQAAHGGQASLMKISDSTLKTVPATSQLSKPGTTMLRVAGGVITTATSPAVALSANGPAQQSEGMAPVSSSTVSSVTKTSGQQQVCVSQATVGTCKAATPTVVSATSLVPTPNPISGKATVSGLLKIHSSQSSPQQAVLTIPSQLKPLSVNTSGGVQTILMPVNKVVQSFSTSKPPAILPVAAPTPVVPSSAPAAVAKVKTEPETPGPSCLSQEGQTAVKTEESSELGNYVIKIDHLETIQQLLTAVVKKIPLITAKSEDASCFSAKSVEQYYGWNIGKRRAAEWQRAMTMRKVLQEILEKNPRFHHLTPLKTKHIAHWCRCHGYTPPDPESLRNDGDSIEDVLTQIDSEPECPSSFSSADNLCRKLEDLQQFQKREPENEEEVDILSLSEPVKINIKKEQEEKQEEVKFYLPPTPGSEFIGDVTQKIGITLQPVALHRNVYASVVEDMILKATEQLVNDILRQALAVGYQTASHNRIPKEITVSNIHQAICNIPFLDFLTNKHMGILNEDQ
The experiment in a line: Thermal Shift Assay. Domain: start/stop M1-D141. To be noted: Compound concentration 25.0 uM, Protein concentration 2.0 uM.

`CN(C)C(=O)c1ccc(-c2cc(C(=O)N[C@@H]3CCc4ccccc43)no2)cc1O`: the ΔTm is -0.01 c.
